“And” between values parts separate entries of the source, which are not always exact repeats. Equal values may be shown once.
Key:
[1] = test system: PolθΔcen:DNA/DNA complex; experiment: EcoRI endonuclease protection assay; format: biochemical; settings: for i (%), normalized to 100%, ave(%) / i (%), replicates: 14 nt i; for i+1 (%) normalized to 100%, ave(%) / i+1 (%), replicates: 15 nt i+1;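 for i (%), replicates: i is primer-template DNA within pre-catalytic complexes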;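 for i+1 (%), replicates: i+1 is one-nucleotide extended DNA within post-catalytic complexes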
Method: EcoRI and KpnI endonucleases assay: 25 nM 5’-^32P radiolabeled primer-template DNA Sc15-EcoRI (5’-^32P LM3-EcoRI/LM4-EcoRI) or Sc19-KpnI (5’-^32P LM11-Kpn/LM12-Kpn) in reaction buffer (25 mM Tris-HCl pH 7.5, 10 mM MgCl2, 10% glycerol, 0.1 mg/mL BSA, 0,01% igepal, 1 mM DTT) were incubated in the presence or in the absence of 50 nM Polθ-pol, 100 μM ddCTP, and 10 μM inhibitors, as indicated, for 5 min at room temperature. Next, 0.08 U/μL EcoRI or KpnI together with 500 nM “trapping” DNA Sc14 (RP559/RP702) were added and incubated for further 0–40 min at 30 °C as indicated. 10 nM PolθΔcen and FL-Polθ and 25 nM Sc15-EcoRI and Sc19-Kpn were probed with 0.04 U/μL EcoRI or KpnI (both from New England Biolabs) using the same conditions. Reactions were stopped by addition of formamide loading buffer with 50 mM EDTA, resolved in denaturing 20% urea PAAG and analyzed using Typhoon PhosphorImager (GE Amersham). Quantification was done in ImageQuant TL software. All quantified experiments were performed in triplicates and plotted as mean with ± s.d using GraphPad Prism 9 software.

[2] = test system: DLD1 Parental cells; experiment: Apoptosis assay (FITC active caspase-3); format: cell-based; set-up: FITC- AVG / FITC+ AVG: unit not given here; settings: for FITC+ AVG / FITC- AVG: DLD1 Parental
Method: DLD1 BRCA2 -/-, DLD1 Parental cells were plated on six well plates and treated with RTX-161 1 day after plating. Medium was replaced every 2 days with RTX-161. Cells were harvested 6 days after plating for apoptosis assay using FITC active caspase-3 apoptosis kit (BD biosciences, catalog # 550480) according to manufacturer’s instructions and analyzed by FACS with Celesta (Becton Dickinson).

[3] = Eco+PolqDcen+ddC+RTx152, 2.5min

CN1CCN(c2cc(C(F)(F)F)cc(C(F)(F)F)c2OC(=O)N(C)c2ccc(F)cc2)C1=O [RTx-152]
EcoRI cleavage %, ave [1, 3]: 9.7%
EcoRI cleavage %, replicates [1, 3]: 11.0% and 8.0% and 10.0%
EcoRI cleavage %, ave ([1]; Eco+PolqDcen+ddC+RTx152, 5min): 14.0%
EcoRI cleavage %, replicates ([1]; Eco+PolqDcen+ddC+RTx152, 5min): 17.0% and 12.0% and 13.0%
EcoRI cleavage %, ave ([1]; Eco+PolqDcen+ddC+RTx152, 10min): 16.7%
EcoRI cleavage %, replicates ([1]; Eco+PolqDcen+ddC+RTx152, 10min): 21.0% and 14.0% and 15.0%
i (%), normalized to 100%, ave(%) ([1]; PolqDcen+ddC+152, 2.5 min): 100.0%
i (%), replicates ([1]; PolqDcen+ddC+152, 2.5 min): 50.3% and 44.4% and 42.8%
i+1 (%) normalized to 100%, ave(%) ([1]; PolqDcen+ddC+152, 2.5 min): 100.0%
i+1 (%), replicates ([1]; PolqDcen+ddC+152, 2.5 min): 20.4% and 24.4% and 22.1%
i (%), normalized to 100%, ave(%) ([1]; PolqDcen+ddC+152, 5 min): 86.1%
i (%), replicates ([1]; PolqDcen+ddC+152, 5 min): 40.2% and 38.5% and 39.7%
i+1 (%) normalized to 100%, ave(%) ([1]; PolqDcen+ddC+152, 5 min): 111.1%
i+1 (%), replicates ([1]; PolqDcen+ddC+152, 5 min): 23.8% (2×) and 26.6%
i (%), normalized to 100%, ave(%) ([1]; PolqDcen+ddC+152, 10 min): 66.5%
i (%), replicates ([1]; PolqDcen+ddC+152, 10 min): 33.3% and 25.6% and 32.6%
i+1 (%) normalized to 100%, ave(%) ([1]; PolqDcen+ddC+152, 10 min): 137.8%
i+1 (%), replicates ([1]; PolqDcen+ddC+152, 10 min): 25.8% and 38.6% and 27.7%

CN(C(=O)Oc1c(N2CCN(CCO)C2=O)cc(C(F)(F)F)cc1C(F)(F)F)c1ccc(F)cc1 [RTx-161]
% population FITC Caspase-3 Negative ([2]; 10 uM RTX-161): 99%
% population FITC Caspase-3 Negative ([2]; 20 uM RTX-161): 99%
FITC+ AVG ([2]; 10 uM, left block of sheet): 1.067
FITC- AVG ([2]; 10 uM, left block of sheet): 98.9333
FITC+ AVG ([2]; 10 uM, middle block of sheet): 2.067
FITC- AVG ([2]; 10 uM, middle block of sheet): 98
FITC+ AVG ([2]; 10 uM, right block of sheet): 2.033
FITC- AVG ([2]; 10 uM, right block of sheet): 97.9667
FITC+ AVG ([2]; 20 uM, left block of sheet): 0.9333
FITC- AVG ([2]; 20 uM, left block of sheet): 99.0667
FITC+ AVG ([2]; 20 uM, middle block of sheet): 1.467
FITC- AVG ([2]; 20 uM, middle block of sheet): 98.6667
FITC+ AVG ([2]; 20 uM, right block of sheet): 1.567
FITC- AVG ([2]; 20 uM, right block of sheet): 98.7667

Source: PMC10997755, “Discovery of a small-molecule inhibitor that traps Polθ on DNA and synergizes with PARP inhibitors” (Nature Communications, 2024)
